Measurements taken from patent US20200069691A1, “HETEROCYCLIC COMPOUNDS AS HIV PROTEASE INHIBITORS” (Merck Sharp & Dohme Corp., priority 2016, published 2020).

Target: T1, wild-type HIV-1 protease (Human immunodeficiency virus type 1 group M subtype B, UniProt P04585)
T1 construct: Escherichia coli expressed wild-type HIV-1 protease protein
Assay: Assay for Inhibition of Microbial Expressed HIV Protease (peptide substrate cleavage, LC-MS/MS readout)
Type: biochemical
Conditions: E. coli expressed wild-type HIV-1 protease, mean of at least two independent experiments, read-out: HIV Pr Enzyme HIV1 PR IC50
Procedure, shortened: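 E. coli-expressed wild-type HIV-1 protease ([…]) was preincubated with inhibitor 30 min at room temperature in pH 5.5 acetate buffer (100 mM NaCl, 0.1% BSA). Then 400 μM octapeptide substrate was added and reacted 1 h at 30 °C; inhibition came from LC-MS/MS product peak areas, mean of ≥2 experiments.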

N=C1NC(c2ccccc2)(c2ccccc2)C(=O)N1Cc1cccc(C(=O)N2Cc3cnc(C(F)(F)F)nc3C2)c1 [Compound 242, 2-imino-5,5-diphenyl-3-(3-{[2-(trifluoromethyl)-5,7-dihydro-6H-pyrrolo[3,4-d]pyrimidin-6-yl]carbonyl}benzyl) imidazolidin-4-one]
IC50: 16.6 nM

CCCC1(c2ccccc2)NC(=N)N(Cc2cccc(C(=O)N3Cc4cnc(C#N)nc4C3)c2)C1=O (centres unmarked) [Compound 243, 6-({3-[(2-imino-5-oxo-4-phenyl-4-propylimidazolidin-1-yl)methyl]phenyl}carbonyl)-6,7-dihydro-5H-pyrrolo[3,4-d]pyrimidine-2-carbonitrile]
IC50: 16.7 nM

CC(C)CCC1(c2ccccc2)NC(=N)N(Cc2cccc(C(=O)N3CCN(c4ncccn4)CC3)c2)C1=O (centres unmarked) [Compound 244, 2-imino-5-(3-methylbutyl)-5-phenyl-3-{3-[(4-pyrimidin-2-ylpiperazin-1-yl)carbonyl]benzyl} imidazolidin-4-one]
IC50: 16.8 nM

CCOC(=O)c1cn2c(n1)CN(C(=O)c1cccc(CN3C(=N)NC(c4ccccc4)(c4ccccc4)C3=O)c1)CC2 [Compound 245, ethyl 7-({3-[(2-imino-5-oxo-4,4-diphenylimidazolidin-1-yl)methyl]phenyl}carbonyl)-5,6,7,8-tetrahydroimidazo[1,2-a]pyrazine-2-carboxylate]
IC50: 17.1 nM

CSc1nnc2n1CCN(C(=O)c1cccc(CN3C(=N)NC(c4ccccc4)(c4ccccc4)C3=O)c1)C2 [Compound 246, 2-imino-3-(3-{[3-(methylsulfanyl)-5,6-dihydro[1,2,4]triazolo[4,3-a]pyrazin-7(8H)-yl]carbonyl}benzyl)-5,5-diphenylimidazolidin-4-one]
IC50: 17.5 nM

CCOC(=O)c1nc2n(c1Cl)CCN(C(=O)c1cccc(CN3C(=N)NC(c4ccccc4)(c4ccccc4)C3=O)c1)C2 [Compound 247, ethyl 3-chloro-7-({3-[(2-imino-5-oxo-4,4-diphenylimidazolidin-1-yl)methyl]phenyl}carbonyl)-5,6,7,8-tetrahydroimidazo[1,2-a]pyrazine-2-carboxylate]
IC50: 17.9 nM

N=C1NC(c2ccc(F)cc2)(c2ccccn2)C(=O)N1Cc1cccc(C(=O)N2Cc3[nH]nc(C(F)(F)F)c3C2)c1 (centres unmarked) [Compound 248, 5-(4-fluorophenyl)-2-imino-5-pyridin-2-yl-3-(3-{[3-(trifluoromethyl)-4,6-dihydropyrrolo [3,4-c]pyrazol-5(1H)-yl]carbonyl}benzyl) imidazolidin-4-one]
IC50: 18 nM

CC(C)CCC1(c2ccccc2)NC(=N)N(Cc2cccc(C(=O)N3Cc4nccnc4C3)c2)C1=O (centres unmarked) [Compound 249, 3-[3-(5,7-dihydro-6H-pyrrolo[3,4-b]pyrazin-6-ylcarbonyl)benzyl]-2-imino-5-(3-methylbutyl)-5-phenylimidazolidin-4-one]
IC50: 18.1 nM

N=C1NC(c2ccccc2)(c2ccccc2)C(=O)N1Cc1cccc(C(=O)N2CCn3cc(C(=O)C4CC4)nc3C2)c1 [Compound 250, 3-(3-{[2-(cyclopropylcarbonyl)-5,6-dihydroimidazo [1,2-a]pyrazin-7(8H)-yl]carbonyl}benzyl)-2-imino-5,5-diphenylimidazolidin-4-one]
IC50: 18.9 nM

CNC(=O)c1nc2n(c1Cl)CCN(C(=O)c1cccc(CN3C(=N)NC(c4ccccc4)(c4ccccc4)C3=O)c1)C2 [Compound 251, 3-chloro-7-({3-[(2-imino-5-oxo-4,4-diphenylimidazolidin-1-yl)methyl]phenyl}carbonyl)-N-methyl-5,6,7,8-tetrahydroimidazo[1,2-a]pyrazine-2-carboxamide]
IC50: 19.2 nM

CC(C)CCC1(c2ccc(F)cc2)NC(=N)N(Cc2cccc(C(=O)N3Cc4nccnc4C3)c2)C1=O (centres unmarked) [Compound 252, 3-[3-(5,7-dihydro-6H-pyrrolo[3,4-b]pyrazin-6-ylcarbonyl)benzyl]-5-(4-fluorophenyl)-2-imino-5-(3-methylbutyl)imidazolidin-4-one]
IC50: 19.8 nM

CC(C)CC1(c2ccccc2)NC(=N)N(Cc2cccc(C(=O)N3Cc4cncnc4C3)c2)C1=O (centres unmarked) [Compound 253, 3-[3-(5,7-dihydro-6H-pyrrolo[3,4-d]pyrimidin-6-ylcarbonyl)benzyl]-2-imino-5-(2-methylpropyl)-5-phenylimidazolidin-4-one]
IC50: 20.1 nM

Cc1ncc2c(n1)CN(C(=O)c1cccc(CN3C(=N)NC(c4ccc(F)cc4)(c4ccc(F)cc4)C3=O)c1)C2 [Compound 254, 5,5-bis(4-fluorophenyl)-2-imino-3-{3-[(2-methyl-5,7-dihydro-6H-pyrrolo[3,4-d]pyrimidin-6-yl)carbonyl]benzyl} imidazolidin-4-one]
IC50: 20.2 nM

COC(=O)N1CCN(C(=O)c2cccc(CN3C(=N)NC(CCC(C)C)(c4ccccc4)C3=O)c2)CC1 (centres unmarked) [Compound 255, methyl 4-[(3-{[2-imino-4-(3-methylbutyl)-5-oxo-4-phenylimidazolidin-1-yl]methyl}phenyl)carbonyl] piperazine-1-carboxylate]
IC50: 20.9 nM

N=C1NC(c2ccc(F)cc2)(c2ccccn2)C(=O)N1Cc1cccc(C(=O)N2Cc3ccccc3C2)c1 (centres unmarked) [Compound 256, 3-[3-(1,3-dihydro-2H-isoindol-2-ylcarbonyl)benzyl]-5-(4-fluorophenyl)-2-imino-5-pyridin-2-ylimidazolidin-4-one]
IC50: 21.1 nM

Cc1nc2c([nH]1)CN(C(=O)c1cccc(CN3C(=N)NC(CCC(C)C)(c4ccccc4)C3=O)c1)C2 (centres unmarked) [Compound 257, 2-imino-5-(3-methylbutyl)-3-{3-[(2-methyl-4,6-dihydropyrrolo[3,4-d]imidazol-5(1H)-yl)carbonyl]benzyl}-5-phenylimidazolidin-4-one]
IC50: 21.2 nM

N=C1NC(c2ccccc2)(c2ccccc2)C(=O)N1Cc1cc(F)cc(C(=O)N2Cc3cncnc3C2)c1 [Compound 258, 3-[3-(5,7-dihydro-6H-pyrrolo[3,4-d]pyrimidin-6-ylcarbonyl)-5-fluorobenzyl]-2-imino-5,5-diphenylimidazolidin-4-one]
IC50: 22.1 nM

CC(C)CC1(c2ccccc2)NC(=N)N(Cc2cccc(C(=O)N3Cc4cccnc4C3)c2)C1=O (centres unmarked) [Compound 259, 3-[3-(5,7-dihydro-6H-pyrrolo[3,4-b]pyridin-6-ylcarbonyl)benzyl]-2-imino-5-(2-methylpropyl)-5-phenylimidazolidin-4-one]
IC50: 22.6 nM

N=C1NC(c2ccccc2)(c2ccccc2)C(=O)N1Cc1cccc(C(=O)N2CCN(C(=O)OCc3ccccc3)CC2)c1 [Compound 260, benzyl 4-({3-[(2-imino-5-oxo-4,4-diphenylimidazolidin-1-yl)methyl]phenyl}carbonyl) piperazine-1-carboxylate]
IC50: 23.2 nM

CC(C)C[C@]1(c2ccccc2)NC(=N)N([C@H](C)c2cccc(C(=O)N3Cc4cncnc4C3)c2)C1=O [Compound 261, 3-{(1R)-1-[3-(5,7-dihydro-6H-pyrrolo[3,4-d]pyrimidin-6-ylcarbonyl)phenyl]ethyl}-2-imino-5-(2-methylpropyl)-5-phenylimidazolidin-4-one]
IC50: 23.5 nM

N#Cc1cccc(C2(c3ccc(F)cc3)NC(=N)N(Cc3cccc(C(=O)N4Cc5ccccc5C4)c3)C2=O)c1 (centres unmarked) [Compound 262, 3-{1-[3-(1,3-dihydro-2H-isoindol-2-ylcarbonyl)benzyl]-4-(4-fluorophenyl)-2-imino-5-oxoimidazolidin-4-yl}benzonitrile]
IC50: 24.4 nM

CCC(c1cccc(C(=O)N2Cc3cncnc3C2)c1)N1C(=N)NC(c2ccccc2)(c2ccccc2)C1=O (centres unmarked) [Compound 263, 3-{1-[3-(5,7-dihydro-6H-pyrrolo[3,4-d]pyrimidin-6-ylcarbonyl)phenyl]propyl}-2-imino-5,5-diphenylimidazolidin-4-one]
IC50: 24.7 nM

CC(C)CC1(c2cccc(F)c2)NC(=N)N(Cc2cccc(C(=O)N3Cc4ccccc4C3)c2)C1=O (centres unmarked) [Compound 264, 3-[3-(1,3-dihydro-2H-isoindol-2-ylcarbonyl)benzyl]-5-(3-fluorophenyl)-2-imino-5-(2-methylpropyl) imidazolidin-4-one]
IC50: 24.8 nM

CC(C)CCC1(c2cccc(F)c2)NC(=N)N(Cc2cccc(C(=O)N3Cc4nccnc4C3)c2)C1=O (centres unmarked) [Compound 265, 3-[3-(5,7-dihydro-6H-pyrrolo[3,4-b]pyrazin-6-ylcarbonyl)benzyl]-5-(3-fluorophenyl)-2-imino-5-(3-methylbutyl)imidazolidin-4-one]
IC50: 24.8 nM

CC(c1cccc(C(=O)N2Cc3cncnc3C2)c1)N1C(=N)NC(c2ccccc2)(c2ccccc2)C1=O (centres unmarked) [Compound 266, 3-{1-[3-(5,7-dihydro-6H-pyrrolo[3,4-b]pyrazin-6-ylcarbonyl)phenyl]ethyl}-2-imino-5.5-diphenylimidazolidin-4-one]
IC50: 26.1 nM

N=C1NC(c2ccc(F)cc2)(c2ccc(F)cc2)C(=O)N1Cc1cccc(C(=O)N2CCN(C(=O)c3ccco3)CC2)c1 [Compound 267, 5,5-bis(4-fluorophenyl)-3-(3-{[4-(furan-2-ylcarbonyl)piperazin-1-yl]carbonyl}benzyl)-2-iminoimidazolidin-4-one]
IC50: 26.3 nM

CC(C)CC1(c2ccccc2)NC(=N)N(Cc2cccc(C(=O)N3CCN(C(=O)c4ccco4)CC3)c2)C1=O (centres unmarked) [Compound 268, 3-(3-{[4-(furan-2-ylcarbonyl)piperazin-1-yl]carbonyl}benzyl)-2-imino-5-(2-methylpropyl)-5-phenylimidazolidin-4-one]
IC50: 26.8 nM

N=C1NC(c2ccccc2)(c2ccccc2)C(=O)N1Cc1cccc(C(=O)N2CCc3ccc(F)cc3C2)c1 [Compound 269, 3-{3-[(7-fluoro-3,4-dihydroisoquinolin-2(1H)-yl)carbonyl]benzyl}-2-imino-5,5-diphenylimidazolidin-4-one]
IC50: 26.9 nM

CC(C)CCC1(c2cccc(F)c2)NC(=N)N(Cc2cccc(C(=O)N3Cc4ccccc4C3)c2)C1=O (centres unmarked) [Compound 270, 3-[3-(1,3-dihydro-2H-isoindol-2-ylcarbonyl)benzyl]-5-(3-fluorophenyl)-2-imino-5-(3-methylbutyl)imidazolidin-4-one]
IC50: 27 nM
